Data taken from patent US20130060020A1, “Compounds useful for treating neurodegenerative disorders” (Satori Pharmaceuticals, Inc., priority 2011, published 2013).
Like-named read-outs stand apart in the source and are kept apart here.

How the values were obtained:
Aβ-38 = Aβ-38 MSD 3-plex ELISA, conditioned media of 2B7 cells; type: cell-based; details: Homo sapiens, 5 hours treatment
Procedure: (§1) Assays were conducted to determine the ability of a Compound of Formula I to modulate […], and Aβ-38.
(§2) Plates with capture antibodies were blocked for 1-2 hours at room temperature with 150 μL of the manufactures blocking reagent.
(§3) Cultured 2B7 cells in 96 well plate with 250 μL of media per well until confluent;
(§4) Prepared serial dilutions of compounds in DMSO at 100× the final desired concentration;
(§5) Washed wells with 2B7 cells 1× with 250 μL of media;
(§6) Diluted DMSO stocks 1:100 into media: • Added 250 μL of media containing compounds (1% DMSO) to wells with 2B7 cells for 5 hours at 37° C.
(§7) ELISA Sample Prep: • Diluted conditioned media: 1 part media with 1% DMSO and 1 part blocking buffer; • 150 μL of the 250 μL of conditioned media were used.
(§8) Prepared per manufacturer's protocol (see above). • Seven point standard curve samples were prepared that contained Aβ-42, Aβ-40, and Aβ-38. The highest concentration of Aβ-42 and Aβ-38 was 3,000 pg/mL and the highest concentration of Aβ-40 was 10,000 pg/mL. Subsequent serial dilutions were 1:3 and the final composition of each sample was 1 part blocking buffer and 1 part cell medium containing 1% DMSO.
(§9) Overnight Sample Incubation: • Blocked plates are washed 5× with MSD wash buffer with a plate washer; • […] and blocker G reagent in MSD blocking solution was added; • 25 μL of samples (1 part conditioned media containing 1% DMSO and 1 part MSD blocking buffer) were then added; • Plates were incubated overnight at 4 degrees C. or 2 hours at room temperature.
(§10) Final Wash and Readout: • Washed wells 5× with MSD wash buffer; • Added 150 μL 2×MSD read buffer; • Read with MSD imager.
(§11) Aβ peptide levels for each peptide were calculated from the standard curve using the MSD software provided with the MSD 2400 Imager. Percent vehicle values for each compound dosage were then calculated and fit to a 4 parameter curve generating IC50 values.
(§12) Conditioned media from 2B7 cells (Mayo) was collected after 5 hours of treatment and diluted with 1 volume of Meso Scale Discovery (MSD, Gaithersburg Md.) blocking buffer (1% BSA in MSD wash buffer). For total Aβ measurements, standard-bind, multi-array single spot 96 well MSD ELISA plates were coated with unlabeled 4G8 capture antibody (Covance, Princeton, N.J.) overnight at 4° C. and then blocked with 5% BSA in MSD wash buffer for 1 hour at room temperature with orbital shaking Diluted 2B7 conditioned media were added to the blocked in-house total Aβ MSD plates with SULFO-TAG 6E10 antibody (MSD). For Aβ38, 40 and 42 measurements, diluted 2B7 conditioned media were added to blocked human (6E10) Aβ 3-Plex plates (MSD). Total Aβ and Aβ 3-Plex plates were incubated for 2 hours at room temperature with orbital shaking followed by washing and reading according to the manufacturer's instructions (SECTOR® Imager 2400, MSD). Aβ concentrations were converted to percent vehicle values and used to construct dose response curves which were fitted to […] using GraphPad Prism version 5.00 for Windows, GraphPad Software, San Diego Calif. USA.

Notch processing (NICD) = test: Notch assay: NICD appearance in SUP-T1 cells (western blot); type: cell-based; details: 18 hours; for Notch % inhib: Notch inhib conc class D (1001-5000 nM)
Procedure: The methods for this assay are broken up into two parts. 1) Growing, dosing and lysing cells 2) Measuring Notch processing (NICD appearance) and data manipulation. Cell viability is also described (CTG). SUP-T1 cells were cultured in T75 flasks in RPMI media (Mediatech 10-041-CV) supplemented with 10% FBS and penicillin/streptomycin at 37° C. in a 5% CO2 atmosphere. One hour prior to drug treatment six well plates were seeded with 1.5 mL of media with cells at a density of 1.0×10^6 cells/mL. The DMSO serial dilutions were diluted 100 fold directly into the media with the cells and incubated for 18 hours at 37° C. After treatment 100 μL of treated cells were assayed for viability with the Promega Cell Titer Glo assay system. […] Lysates were spun at 5,000 RPM for 5 minutes and supernatants were collected and analyzed for NICD levels. […] To account for loading discrepancies each NICD band was normalized to the alpha tubulin band in that well. These values were then normalized to vehicle levels and used to plot a dose response curve. IC50 values were obtained from the dose response curves using a four parameter fit method available within Prism's GraphPad graphing suite. Luminescent data from Promega's Cell Titre Glo assay system were normalized to vehicle controls and plotted with NICD levels.

Aβ-40 = Aβ-40 MSD 3-plex ELISA, conditioned media of 2B7 cells; type: cell-based; details: Homo sapiens, 5 hours treatment
Procedure: as §1, §2, §3, §4, §5, §6, §7, §8, §9, §10, §11, §12

Aβ-42 = Aβ-42 MSD 3-plex ELISA, conditioned media of 2B7 cells; type: cell-based; details: Homo sapiens, 5 hours treatment
Procedure: as §1, §2, §3, §4, §5, §6, §7, §8, §9, §10, §11, §12

Aβ 42 = test: % 42 lowering and 40/42 selectivity after dosing in mg/kg (Table 5); type: in vivo
[1] = inflection of dose response curve, read-out: Aβ 42 DR IC50 Inflection

CCO[C@@H]([C@H]1C[C@@H](C)[C@H]2[C@H](O1)[C@H](O)[C@@]1(C)[C@@H]3CC[C@H]4C(C)(C)[C@@H](O[C@H]5CN(C6CNC6)CCO5)CC[C@@]45C[C@@]35CC[C@]21C)C(C)(C)O [Compound I-2]
IC50 (Aβ-38; inflection of dose response curve, read-out: Aβ 38 DR IC50 Inflection): 100 to 500 nM
IC50 (Aβ-38; read-out: Aβ 38 IC50): 100 to 500 nM
Notch % inhib (Notch processing (NICD)): A (A is range from 0-25%)
IC50 (Aβ-40; inflection of dose response curve, read-out: Aβ 40 DR IC50 Inflection): > 5 µM
IC50 (Aβ-40; read-out: Aβ 40 IC50): 1 to 5 µM
IC50 (Aβ-42; [1]): < 100 nM
IC50 (Aβ-42; read-out: Aβ 42 IC50): 100 to 500 nM

CCO[C@@H]([C@H]1C[C@@H](C)[C@H]2[C@H](O1)[C@H](O)[C@@]1(C)[C@@H]3CC[C@H]4C(C)(C)[C@@H](O[C@H]5CN(C6CN(C)C6)CCO5)CC[C@@]45C[C@@]35CC[C@]21C)C(C)(C)O [Compound I-3]
inhibition at 5 µM (Notch processing (NICD); Homo sapiens, Notch inhib conc class E (>5000 nM)): 26 to 50%

CCO[C@@H]([C@H]1C[C@@H](C)[C@H]2[C@H](O1)[C@H](O)[C@@]1(C)[C@@H]3CC[C@H]4C(C)(C)[C@@H](O[C@H]5CN(CC6CN(C)C6)CCO5)CC[C@@]45C[C@@]35CC[C@]21C)C(C)(C)O [Compound I-5]
%42 lowering 10 hr (Aβ 42; 150 mg/kg): A (% 42 lowering of under 15%)

CCO[C@@H]([C@H]1C[C@@H](C)[C@H]2[C@H](O1)[C@H](O)[C@@]1(C)[C@@H]3CC[C@H]4C(C)(C)[C@@H](O[C@H]5CN(C6CN(C(C)C)C6)CCO5)CC[C@@]45C[C@@]35CC[C@]21C)C(C)(C)O [Compound I-6]
%42 lowering 10 hr (Aβ 42; 150 mg/kg): C (% 42 lowering of 21-25%)
%42 lowering 24 hr (Aβ 42; 100 mg/kg): E^a (% 42 lowering of greater than 31%)

CCO[C@@H]([C@H]1C[C@@H](C)[C@H]2[C@H](O1)[C@H](O)[C@@]1(C)[C@@H]3CC[C@H]4C(C)(C)[C@@H](O[C@H]5CN(C6CN(CC(=O)N(C)C)C6)CCO5)CC[C@@]45C[C@@]35CC[C@]21C)C(C)(C)O [Compound I-7]
IC50 (Aβ-38; read-out: Aβ 38 IC50): 100 to 500 nM
Notch % inhib (Notch processing (NICD)): A (A is range from 0-25%)
IC50 (Aβ-40; read-out: Aβ 40 IC50): 1 to 5 µM
IC50 (Aβ-42; [1]): 100 to 500 nM
IC50 (Aβ-42; read-out: Aβ 42 IC50): 100 to 500 nM

CCO[C@@H]([C@H]1C[C@@H](C)[C@H]2[C@H](O1)[C@H](O)[C@@]1(C)[C@@H]3CC[C@H]4C(C)(C)[C@@H](O[C@H]5CN(C6CN(CC(=O)N7CCC7)C6)CCO5)CC[C@@]45C[C@@]35CC[C@]21C)C(C)(C)O [Compound I-8]
IC50 (Aβ-38; read-out: Aβ 38 IC50): 1000 to 5000 nM
Notch % inhib (Notch processing (NICD)): A (A is range from 0-25%)
IC50 (Aβ-40; read-out: Aβ 40 IC50): 1 to 5 µM
IC50 (Aβ-42; [1]): 100 to 500 nM
IC50 (Aβ-42; read-out: Aβ 42 IC50): 100 to 500 nM

CCO[C@@H]([C@H]1C[C@@H](C)[C@H]2[C@H](O1)[C@H](O)[C@@]1(C)[C@@H]3CC[C@H]4C(C)(C)[C@@H](O[C@H]5CN(C6CN(C7CCC7)C6)CCO5)CC[C@@]45C[C@@]35CC[C@]21C)C(C)(C)O [Compound I-13]
%42 lowering 10 hr (Aβ 42; 150 mg/kg): D (% 42 lowering of 26-30%)
%42 lowering 24 hr (Aβ 42; 150 mg/kg): D (% 42 lowering of 26-30%)

CCO[C@@H]([C@H]1C[C@@H](C)[C@H]2[C@H](O1)[C@H](O)[C@@]1(C)[C@@H]3CC[C@H]4C(C)(C)[C@@H](O[C@H]5CN(CC6CN(CCOC)C6)CCO5)CC[C@@]45C[C@@]35CC[C@]21C)C(C)(C)O [Compound I-20]
%42 lowering 10 hr (Aβ 42; 100 mg/kg): A^a (% 42 lowering of under 15%)
